Laboratory results from patent US6509329B1, “Cyclic diamine compound with 6-membered ring groups” (Kowa Co., Ltd., priority 2001, dated 2003).
Where two headings read alike, the source gives them in different places.

Test system: adhesion of U937 cells to HUVEC stimulated by IL-1β or TNFα
Assay: Inhibitory effect on cell adhesion (U937 adhesion to stimulated HUVEC)
Assay type: cell-based
Conditions: Homo sapiens, compound at 1 μM, fluorescence-labeled U937 adhesion for 1 hour
Procedure: This test was conducted by reference to the method of Ross et al. (J. Biol. Chem., 267, 8537-8543 (1992)). More specifically, after human umbilical venous endothelial cells (HUVEC) were cultured on a 48-well plate to confluent growth, IL−1β or TNFα was added thereto. Upon elapsed time of 5 hours after the addition, U937, which is a human monocytic/histocytic cell fluorescence-labeled with PKH2 (product of Dainippon Pharmaceutical Co., Ltd.), was added in a proportion of 1×10^6 cells per well. After the plate was left at rest at room temperature for 1 hour, unadhered U937 was washed out and lysed in 1% Triton X-100 to measure a remaining fluorescence intensity (excitation wavelength: 480 nm; measuring wavelength: 530 nm). HUVEC and U937 were cultured in EGM-2 (product of Sanko Junyaku K.K.) and 10% FCS-containing RPMI1640, respectively. Each test agent was added to HUVEC upon the addition of IL-1β or TNFα and to U937 24 hours prior to the cell adhesion test. The inhibitory activity was calculated out according to the equation [100−(C−B)/(A−B)×100 (%)], wherein A is the number of U937 cells adhered to HUVEC stimulated by IL−1β or TNFα when no test agent was added, B is the number of U937 cells adhered to HUVEC not stimulated by IL-1β or TNFα when no test agent was added, and C is the number of U937 cells adhered to HUVEC stimulated by ILβ or TNFα when the test agent was added. As control compounds, Test Compound 1 described in Japanese Patent Application Laid-Open No. 9-143075 and dilazep described in Japanese Patent Application Laid-Open No. 11-92382 were simultaneously evaluated.

[1] = HUVEC stimulated by IL-1β for 5 hours, read-out: Percent inhibition (%) of cell adhesion, Stimulation by IL-1β
[2] = HUVEC stimulated by TNFα for 5 hours, read-out: Percent inhibition (%) of cell adhesion, Stimulation by TNFα

**Q.** How did the inhibition at 1 µM [1] turn out when COc1cc(C#Cc2cc(CN3CCN(Cc4ccnc(C#Cc5cc(OC)c(OC)c(OC)c5)c4)CC3)ccn2)cc(OC)c1OC [Example 22, N,N′-bis[[2-(3,4,5-Trimethoxyphenylethynyl)-pyridin-4-yl]methyl]piperazine] was run?
**A.** 34%

**Q.** And the inhibition at 1 µM [2]?
**A.** 50%

**Q.** Which inhibition at 1 µM [1] does the source give for COc1cc(-c2cccc(CN3CCCN(Cc4cccc(-c5cc(OC)c(OC)c(OC)c5)c4)CC3)c2)cc(OC)c1OC [Example 4, N,N′-bis[3-(3,4,5-Trimethoxyphenyl)benzyl]-homopiperazine] here?
**A.** 42%

**Q.** And the inhibition at 1 µM [2]?
**A.** 43%

**Q.** What does the source list for COc1cc(-c2cc(CN3CCN(Cc4ccnc(-c5cc(OC)c(OC)c(OC)c5)c4)CC3)ccn2)cc(OC)c1OC [Example 9, N,N′-bis[[2-(3,4,5-Trimethoxyphenyl)pyridin-4-yl]methyl]piperazine]?
**A.** inhibition at 1 µM [1]: 53%; inhibition at 1 µM [2]: 64%

**Q.** What does the source list for COc1cc(-c2cc(CN3CCCN(Cc4ccnc(-c5cc(OC)c(OC)c(OC)c5)c4)CC3)ccn2)cc(OC)c1OC [Example 10, N,N′-bis[[2-(3,4,5-Trimethoxyphenyl)pyridin-4-yl]methyl]homopiperazine]?
**A.** inhibition at 1 µM [1]: 63%; inhibition at 1 µM [2]: 71%

**Q.** How did the inhibition at 1 µM [1] turn out when COc1cc(C(=O)OCCCN2CCCN(CCCOC(=O)c3cc(OC)c(OC)c(OC)c3)CC2)cc(OC)c1OC [Dilazep, dilazep, reference compound] was run?
**A.** 0%

**Q.** What about the inhibition at 1 µM [2] of the same molecule?
**A.** 12%
